Test results published in patent US20240270821A1, “GIP/GLP1/GCG TRI-RECEPTOR AGONISTS AND USES THEREOF” (priority 2023, published 2024).
Where two headings read alike, the source gives them in different places. Starred links: 1 amine or outer side, 2 acyl side, 3 side chain; linkers in the order of their positions; H or OH if unused. Non-standard residues stand in square brackets, D forms with d. Groups on a side chain read outwards from the residue. No end group written: not given here. *: point of attachment. C18 diacid = O=C(O)CCCCCCCCCCCCCCCCC(=O)*; αMePhe(2-F) = C[C@](N)(Cc1ccccc1F)C(=O)O; γGlu = O=C(O)[C@H](CCC(=O)[*:2])N[*:1]; αMe4Pal = C[C@](N)(Cc1ccncc1)C(=O)O; αMeY = C[C@](N)(Cc1ccc(O)cc1)C(=O)O; 4Pal = N[C@@H](Cc1ccncc1)C(=O)O; αMeL = CC(C)C[C@](C)(N)C(=O)O; αMeS = C[C@](N)(CO)C(=O)O; Orn = NCCC[C@H](N)C(=O)O; AEEA = NCCOCCOCC(=O)O; Aib = CC(C)(N)C(=O)O

Tests used:
human GcgR = human GcgR (Homo sapiens, UniProt P47871); test: Functional cAMP activity in the presence of 1% HSA; format: cell-based; settings: read-out: cAMP Rel EC50, hGcgR
hGIPR [1] = target: T1, hGIPR (Homo sapiens, UniProt P48546); test: Functional cAMP activation in the presence of 0.1% casein (no HSA); format: cell-based; settings: read-out: Relative cAMP EC50, hGIPR;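 further: intracellular cAMP rise after 30 min at 37 °C read by HTRF against a standard curve, scaled between buffer alone (0%) and top control ligand concentration (100%), four-parameter fit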
T1 sequence (P48546 22-466): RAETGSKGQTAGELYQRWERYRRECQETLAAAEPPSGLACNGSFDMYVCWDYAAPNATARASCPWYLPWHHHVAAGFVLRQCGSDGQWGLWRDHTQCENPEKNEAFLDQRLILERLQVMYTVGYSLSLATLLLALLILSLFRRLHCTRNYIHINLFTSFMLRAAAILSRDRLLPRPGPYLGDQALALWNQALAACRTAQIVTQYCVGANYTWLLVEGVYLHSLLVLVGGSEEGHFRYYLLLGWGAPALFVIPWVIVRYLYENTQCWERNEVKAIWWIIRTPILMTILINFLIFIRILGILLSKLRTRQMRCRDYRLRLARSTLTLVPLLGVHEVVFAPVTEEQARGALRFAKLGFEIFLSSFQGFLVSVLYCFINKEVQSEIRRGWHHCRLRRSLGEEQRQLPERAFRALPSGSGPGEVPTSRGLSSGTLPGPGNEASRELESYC

human GLP1-R = human GLP1-R (Homo sapiens, UniProt P43220); test: GLP1-R internalization assay in HEK293 cells; format: cell-based; settings: for EC50: HEK293 cells expressing SNAP-GLP-1R, read-out: GLP1R Internalization EC50; for Internalization % TOP: normalized to maximum concentration of GLP-1 (100%)
[2] = system: Intestinal organoid from Göttingen minipig jejunum tissue, 2D monolayer; test: Cell based in vitro permeability (Papp) assay; format: in vitro ADME
Procedure: Intestinal organoid from Göttingen minipig jejunum tissue and its 2D monolayer are generated using the protocol previously described ([…]-Thiele, […].; Wells, J. M., Optimized procedures for generating an enhanced, near physiological 2D culture system from porcine intestinal organoids. […] After 7 days of culture, organoids are dissociated into single cells by TrypLE (GIbco), and the single cell suspension is added in 24-well transparent transwell inserts (0.3 cm^2, Falcon, BD). […] Samples from the basal compartment are collected at 20 min in the presence of C10. Peptide concentrations in the apical and basal compartments are measured by LC/MS, and the apparent permeability coefficient (Papp) is calculated as previously described (Twarog, C.; Liu, K.; O'Brien, P. J.; Dawson, […] head-to-head Caco-2 assay comparison of the mechanisms of action of the intestinal permeation enhancers: SNAC and sodium caprate (C10).

hGLP-1R [3] = target: T2, hGLP-1R (Homo sapiens, UniProt P43220); test: Functional cAMP activity in the presence of 1% HSA; format: cell-based; settings: read-out: cAMP Rel EC50, hGLP-1R
hGLP-1R [4] = target: T2, hGLP-1R; test: Functional cAMP activation in the presence of 0.1% casein (no HSA); format: cell-based; settings: read-out: Relative cAMP EC50, hGLP-1R;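 further: intracellular cAMP rise after 30 min at 37 °C read by HTRF, normalized between buffer only (0%) and maximal control ligand (100%), four-parameter variable-slope fit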
hGIPR [5] = target: T1, hGIPR; test: Functional cAMP activity in the presence of 1% HSA; format: cell-based; settings: read-out: cAMP Rel EC50, hGIPR
hGcgR = hGcgR (Homo sapiens, UniProt P47871); test: Functional cAMP activation in the presence of 0.1% casein (no HSA); format: cell-based; settings: read-out: Relative cAMP EC50, hGcgR;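 further: intracellular cAMP rise after 30 min at 37 °C, read by HTRF against a cAMP standard curve, scaled from buffer only (0%) to maximal control ligand response (100%)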
[6] = in the presence of 0.1% casein (no HSA), geometric mean

T2 sequence (P43220 24-463): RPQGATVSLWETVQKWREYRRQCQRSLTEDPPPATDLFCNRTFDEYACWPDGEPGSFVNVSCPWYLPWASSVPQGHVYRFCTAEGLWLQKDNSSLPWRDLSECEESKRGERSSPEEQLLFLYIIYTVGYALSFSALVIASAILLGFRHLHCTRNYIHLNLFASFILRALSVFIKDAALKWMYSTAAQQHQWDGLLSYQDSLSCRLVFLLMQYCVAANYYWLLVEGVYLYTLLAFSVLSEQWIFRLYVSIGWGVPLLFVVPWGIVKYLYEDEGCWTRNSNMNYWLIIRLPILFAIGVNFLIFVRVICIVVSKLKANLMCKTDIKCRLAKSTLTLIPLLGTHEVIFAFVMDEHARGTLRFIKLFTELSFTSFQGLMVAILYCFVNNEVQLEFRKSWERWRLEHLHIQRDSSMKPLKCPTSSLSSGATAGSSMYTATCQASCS
human GLP1-R, sequence (P43220 24-463): as above
hGcgR, sequence (P47871 26-477): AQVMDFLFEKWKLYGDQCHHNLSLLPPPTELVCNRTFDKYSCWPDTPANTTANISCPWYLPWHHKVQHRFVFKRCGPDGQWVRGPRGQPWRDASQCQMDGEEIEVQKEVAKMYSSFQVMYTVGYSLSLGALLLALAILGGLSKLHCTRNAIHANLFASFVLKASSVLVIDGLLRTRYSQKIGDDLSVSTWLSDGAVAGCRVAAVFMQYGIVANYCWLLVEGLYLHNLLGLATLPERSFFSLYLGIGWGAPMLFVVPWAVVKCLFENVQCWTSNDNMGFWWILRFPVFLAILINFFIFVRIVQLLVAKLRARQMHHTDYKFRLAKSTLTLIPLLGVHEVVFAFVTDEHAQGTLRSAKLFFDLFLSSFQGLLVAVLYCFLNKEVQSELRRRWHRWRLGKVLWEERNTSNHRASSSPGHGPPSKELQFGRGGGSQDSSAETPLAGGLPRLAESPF
human GcgR, sequence (P47871 26-477): as above

Row | Compound | EC50 (human GcgR) | EC50 (hGIPR [1]; [6]) | EC50 (human GLP1-R) | Internalization % TOP (human GLP1-R) | Relative Papp (Compared to internal standard) [2] | EC50 (hGLP-1R [3]) | EC50 (hGLP-1R [4]; [6]) | EC50 (hGIPR [5]) | EC50 (hGcgR; [6]) | EC50 (hGIPR [1]) | EC50 (hGLP-1R [4]) | EC50 (hGcgR)
1 | Y[Aib]QGTFTSDFS[Orn][αMeL]LDKK([AEEA-AEEA-γGlu-C18 diacid])AQ[Aib]AFIEYLLE[dA]GPSSGEPPPSGS-NH2 [Example 155] | 1310 nM | 0.177 nM | 85.1 nM | 54.5% | 0.07 | 503 nM | 2.98 nM | 18.9 nM | 5.68 nM | – | – | –
2 | CC[C@H](C)[C@H](NC(=O)[C@H](Cc1ccccc1)NC(=O)[C@H](C)NC(=O)C(C)(C)NC(=O)[C@H](CCC(N)=O)NC(=O)[C@H](C)NC(=O)[C@H](CCCCNC(=O)COCCOCCNC(=O)CC[C@H](NC(=O)CCCCCCCCCCCCCCCCC(=O)O)C(=O)O)NC(=O)[C@H](CCCCN)NC(=O)[C@H](CC(=O)O)NC(=O)[C@H](CC(C)C)NC(=O)[C@](C)(CC(C)C)NC(=O)[C@H](CCCN)NC(=O)[C@H](CO)NC(=O)[C@H](Cc1ccccc1)NC(=O)[C@H](CC(=O)O)NC(=O)[C@H](CO)NC(=O)[C@@H](NC(=O)[C@H](Cc1ccccc1)NC(=O)[C@@H](NC(=O)CNC(=O)[C@H](CCC(N)=O)NC(=O)C(C)(C)NC(=O)[C@@H](N)Cc1ccc(O)cc1)[C@@H](C)O)[C@@H](C)O)C(=O)N[C@@H](CCC(=O)O)C(=O)N[C@@H](Cc1ccc(O)cc1)C(=O)N[C@@H](CC(C)C)C(=O)N[C@@H](CC(C)C)C(=O)N[C@@H](CCC(=O)O)C(=O)N[C@H](C)C(=O)NCC(=O)N[C@@H](CCCCNC(C)=O)C(=O)N[C@@H](CO)C(=O)N[C@@H](CO)C(=O)NCC(=O)N[C@@H](C)C(=O)N1CCC[C@H]1C(=O)N1CCC[C@H]1C(=O)N1CCC[C@H]1C(=O)N[C@@H](CO)C(=O)NCC(=O)N[C@@H](CCC(=O)O)C(N)=O [Example 208] | 578 nM | 0.159 nM | 55.7 nM | 49.6% | 0.29 | 336 nM | 3.72 nM | – | 2.69 nM | – | – | –
3 | H-Y[Aib]QGTFTSDFS[Orn][αMeL]LDKK([AEEA-γGlu-C18 diacid])AQ[Aib]AFIEWLLEGGPSSGAPPPTGS-NH2 [Example 250] | 201 nM | 0.154 nM | 97 nM | 45% | 0.11 | 194 nM | 2.08 nM | 11.7 nM | 3.81 nM | – | – | –
4 | Y[Aib]QGTFTSDFS[Orn][αMeL]LDKK([AEEA-γGlu-C18 diacid])AQ[Aib]AFIEYLLE[dA]GPSSGEPPPSGE-NH2 [Example 135] | 557 nM | 0.246 nM | – | – | 0.04 | 472 nM | 3.3 nM | 23.4 nM | 2.53 nM | – | – | –
5 | H-Y[Aib]QGT[αMePhe(2-F)]TSD[4Pal][αMeS]I[αMeL]LD[Orn]K([γGlu-γGlu-C18 diacid])AQ[αMe4Pal]EFI[dE][αMeY]LVEGGPSSGEPPPSGS-NH2 [Example 737] | 122 nM | – | – | – | 0.69 | 22.3 nM | – | 0.498 nM | – | 0.00804 nM | 0.285 nM | 1.34 nM
6 | H-Y[Aib]QGT[αMePhe(2-F)]TSD[4Pal]SI[αMeL]LD[Orn]K([AEEA-γGlu-C18 diacid])AQ[αMe4Pal][Orn]FI[dE][αMeY]LIEGGPSSGEPPPEGE-NH2 [Example 675] | 207 nM | – | – | – | 0.36 | 25 nM | – | 1.16 nM | – | 0.0111 nM | 0.254 nM | 2.15 nM
7 | H-Y[Aib]QGT[αMePhe(2-F)]TSD[4Pal][αMeS]I[αMeL]LD[Orn]K([γGlu-γGlu-C18 diacid])AQ[αMe4Pal]EFI[dE][αMeY]LIEGGPSSGAPPPEGGGE-NH2 [Example 761] | 162 nM | – | – | – | 0.53 | 26.1 nM | – | 0.635 nM | – | 0.00686 nM | 0.226 nM | 1.5 nM
8 | H-Y[Aib]QGT[αMePhe(2-F)]TSD[4Pal]SILLDKK([γGlu-γGlu-C18 diacid])AQ[Aib]AFIE[αMe4Pal]LEEGGPSSGAPPPSGTE-NH2 [Example 552] | 289 nM | – | – | – | 0.53 | 86.2 nM | – | 1.67 nM | – | 0.0177 nM | 0.804 nM | 2.53 nM
9 | CC[C@H](C)[C@H](NC(=O)[C@H](Cc1ccccc1)NC(=O)[C@H](CCCN)NC(=O)C(C)(C)NC(=O)[C@H](CCC(N)=O)NC(=O)[C@H](C)NC(=O)[C@H](CCCCNC(=O)[C@@H](CCC(=O)O)NC(=O)CC[C@H](NC(=O)CCCCCCCCCCCCCCCCC(=O)O)C(=O)O)NC(=O)[C@H](CCCN)NC(=O)[C@H](CC(=O)O)NC(=O)[C@H](CC(C)C)NC(=O)[C@](C)(CC(C)C)NC(=O)[C@@H](NC(=O)[C@](C)(CO)NC(=O)[C@H](Cc1ccncc1)NC(=O)[C@H](CC(=O)O)NC(=O)[C@H](CO)NC(=O)[C@@H](NC(=O)[C@](C)(Cc1ccccc1F)NC(=O)[C@@H](NC(=O)CNC(=O)[C@H](CCC(N)=O)NC(=O)C(C)(C)NC(=O)[C@@H](N)Cc1ccc(O)cc1)[C@@H](C)O)[C@@H](C)O)[C@@H](C)CC)C(=O)N[C@H](CCC(=O)O)C(=O)N[C@@](C)(Cc1ccc(O)cc1)C(=O)N[C@@H](CC(C)C)C(=O)N[C@@H](CCC(N)=O)C(=O)N[C@@H](CCC(=O)O)C(=O)NCC(=O)NCC(=O)N1CCC[C@H]1C(=O)N[C@@H](CO)C(=O)N[C@@H](CO)C(=O)NCC(=O)N[C@@H](CCC(=O)O)C(=O)N1CCC[C@H]1C(=O)N1CCC[C@H]1C(=O)N1CCC[C@H]1C(=O)N[C@@H](CCC(=O)O)C(=O)NCC(=O)N[C@H](C(=O)N[C@@H](CCC(=O)O)C(=O)N[C@@H](CCC(=O)O)C(N)=O)[C@@H](C)O [Example 595] | 353 nM | – | – | – | 0.55 | 30.4 nM | – | 1.73 nM | – | 0.0338 nM | 0.53 nM | 5.06 nM
10 | CC[C@H](C)[C@H](NC(=O)[C@H](Cc1ccccc1)NC(=O)[C@H](C)NC(=O)C(C)(C)NC(=O)[C@H](CCC(N)=O)NC(=O)[C@H](C)NC(=O)[C@H](CCCCNC(=O)COCCOCCNC(=O)CC[C@H](NC(=O)CCCCCCCCCCCCCCCCC(=O)O)C(=O)O)NC(=O)[C@H](CCCCN)NC(=O)[C@H](CC(=O)O)NC(=O)[C@H](CC(C)C)NC(=O)[C@](C)(CC(C)C)NC(=O)[C@H](CCCN)NC(=O)[C@H](CO)NC(=O)[C@H](Cc1ccccc1)NC(=O)[C@H](CC(=O)O)NC(=O)[C@H](CO)NC(=O)[C@@H](NC(=O)[C@H](Cc1ccccc1)NC(=O)[C@@H](NC(=O)CNC(=O)[C@H](CCC(N)=O)NC(=O)C(C)(C)NC(=O)[C@@H](N)Cc1ccc(O)cc1)[C@@H](C)O)[C@@H](C)O)C(=O)N[C@@H](CCC(=O)O)C(=O)N[C@@H](Cc1c[nH]c2ccccc12)C(=O)N[C@@H](CC(C)C)C(=O)N[C@@H](CC(C)C)C(=O)N[C@@H](CCC(=O)O)C(=O)NCC(=O)NCC(=O)N1CCC[C@H]1C(=O)N[C@@H](CO)C(=O)N[C@@H](CO)C(=O)NCC(=O)N[C@@H](C)C(=O)N1CCC[C@H]1C(=O)N1CCC[C@H]1C(=O)N1CCC[C@H]1C(=O)N[C@@H](Cc1c[nH]cn1)C(=O)NCC(=O)N[C@@H](CO)C(N)=O [Example 249] | 604 nM | 0.173 nM | 86.2 nM | 34.8% | 0.04 | 256 nM | – | 22.5 nM | 5.55 nM | – | – | –
11 | H-Y[Aib]QGTFTSD[4Pal]S[Orn][αMeL]LDKK([AEEA-γGlu-C18 diacid])AQ[αMe4Pal]AFIEYLIE[Aib]GPSSGAPPPSGS-NH2 [Example 808] | 286 nM | 0.187 nM | – | – | 0.29 | 406 nM | 3.58 nM | 27.3 nM | 1.65 nM | – | – | –
